According to a melting point compilation (Tetko et al.; mined from patent text by program, amines drawn as free bases though some values may be those of a salt):

Point of comparison: `CCCCc1nc(SCCO)c(C(=O)O)n1Cc1ccc(-c2ccccc2C(=O)O)cc1`, melting point 194 °C. Against it:
- Oc1ccccc1CNCc1cccc(CNCc2ccccc2O)c1 — lower, 61 to 63 °C
- O=S1(=O)CCN2C=CC(Cl)=C(c3ccc(Oc4ccccc4)cc3)C2=N1 — higher, 283 to 284 °C
- O=C(C(Cl)(Cl)Cl)C1(c2ccc(Cl)cc2)C=CC=N1 (stereo not drawn) — lower, 166 to 168 °C
- Cc1nc(-c2ccccc2)cc(-c2ccc(C#N)o2)c1C(=O)NCCN1CCOCC1 — lower, 141 to 143 °C
- CC(C)(Cn1c(CO)nc2c(N)nc3cccnc3c21)NC(=O)C1CCCCC1 — higher, 230 to 232 °C
- C[C@@H](n1cnc2cc(-c3ccc(C(=N)NC#N)cc3)sc2c1=O)[C@](O)(Cn1cncn1)c1ccc(F)cc1F — higher, 275 to 278 °C
- Cc1cc(Oc2ccccc2)c(S(C)(=O)=O)cc1C(=O)N=C(N)N — higher, 248 to 250 °C
- COC(=O)Nc1nn2cccc2c(=O)[nH]1 — higher, 232 °C
- Nc1nc2ccccc2c2c1nc(CO)n2CC1(O)CCOCC1 — higher, > 250 °C
- OC1(c2cccc3[nH]ccc23)CCN(CCOc2ccccc2)CC1 — lower, 168 °C
- Cc1cc(NC(=O)c2ccccc2O)cc(C)c1O — lower, 142 to 145 °C
- O=C[C@H](Cc1c[nH]c2ccccc12)NC(=O)[C@H](Cc1ccccc1)NC(=O)OCc1ccccc1 — lower, 74 to 77 °C
- CC(=O)NC[C@H]1CN(c2ccc(-c3noc(C(F)(F)F)n3)c(F)c2)C(=O)O1 — lower, 192 to 193 °C
- CCCc1c(OCCCCCc2c(O)c(O)cc(Cl)c2Cl)ccc(C(=O)O)c1O — lower, 159 to 164 °C
- Cc1c(C(=O)N[C@@H](Cc2ccc(OCc3ccsc3)cc2)C(=O)O)oc2cc(-c3ccc(Cl)cc3)ccc12 — lower, 111 to 113 °C
- O=c1[nH]c(S)nnc1-c1cc(O)c(O)c([N+](=O)[O-])c1 — higher, 282 to 284 °C
- COc1ccc(-n2c(N)nc3ccccc32)cc1-c1ccco1 — higher, 218 to 221 °C
- CC(C)Nc1ncnc2cscc12 — higher, 230 °C
- O=C1NCCCCC1Br (stereo not drawn) — lower, 109 to 111 °C
- CC1(C)OCc2cc([C@@H](O)C(=O)N[C@H]3CCc4ccc(O)cc4C3)ccc2O1 — lower, 169 to 170 °C
- COC(=O)c1ccc(CN2C(=O)C3(COc4cc5c(cc43)OCCO5)c3ccccc32)cc1 (stereo not drawn) — lower, 167 to 169 °C
- C=C(C)Cc1c(C)c2c(c(C)c1O)CC(C)(C)N2C=O — lower, 166 to 168 °C
- NC(=O)N(O)CCNC(=O)CCc1ccccc1 — lower, 165 to 167 °C
- CCCCCCCN(CCO)c1ccc2c(c1)Oc1cc(=C(C#N)C#N)c3ccccc3c1=N2 — lower, 155 to 157 °C
- CCCCCN(CCC12CC3CC(CC(C3)C1)C2)C(=O)NCc1ccncc1 — lower, 96.5 to 108 °C
- Cc1ccc2nc(N3CCNCC3)c(=O)n(-c3ccccc3)c2c1 — lower, 166 to 168 °C
- CN1CCc2c(sc3ncn(CCO)c(=O)c23)C1 — lower, 163 to 165 °C
- N#CCSc1cc(F)cc(F)c1N — lower, 66 to 67 °C
- NCc1cccc(C2CCN(c3cc4c(cc3F)c(=O)c(C(=O)O)cn4C3CC3)C2)c1 (stereo not drawn) — higher, 250 to 253 °C
- Cc1ccc(S(=O)(=O)N(F)C(C)(C)C)cc1 — lower, 59 to 62.5 °C
- CCN(CCCCc1coc2ccccc12)C[C@H]1COc2ccc3nc(C)ccc3c2O1 — lower, 87 to 92 °C
- O=C(COc1ccc(Cl)c(Cl)c1)N1CCC2(CC1)Cn1cc([N+](=O)[O-])nc1O2 — higher, 218 to 220 °C
- Cc1c(C(=O)Nc2ccc(Oc3ccccc3)c(C#N)c2)cnn1-c1ccc(F)cc1 — lower, 182 to 183 °C
- Cc1cc(CC(=O)O)n(C)c1C(=O)c1ccc(F)cc1 — lower, 176 to 178 °C
- Cc1cccc2[nH]c(C=O)cc12 — lower, 147 to 149 °C
- CC(C)(O)Cn1cnc2c(N)nc3ccc(Br)cc3c21 — higher, 197 to 198 °C
- O=c1[nH]c2sc(Cl)c(Cl)c2[nH]c1=O — higher, > 300 °C
- COc1c(C(=O)Nc2ccc(-n3nc(C(F)(F)F)cc3C(F)(F)F)cc2)csc1Cl — lower, 119 to 120 °C
- Cc1nc(NC(=O)c2cnn3c(C(F)(F)F)cc(-c4ccc(C(F)(F)F)cc4)nc23)sc1S(=O)(=O)N1CCN(C)CC1 — higher, 273 °C
- COc1ccccc1C(=O)OC(=C1C(=O)N(C(N)=O)c2cc(Cl)c(F)cc21)c1cccs1 — higher, 219 to 221 °C
- CN1CCN(c2ccccc2C(O)C2SCCNC2=O)CC1 (stereo not drawn) — lower, 137 to 139 °C
- CC(Cc1c[nH]c2ccccc12)(NC(=O)OC(CF)C(F)F)C(=O)NCCc1ccccn1 (stereo not drawn) — lower, 65 to 67 °C
- O=[N+]([O-])c1cccc(OCc2ccccc2)c1[N+](=O)[O-] — lower, 100 to 101 °C
- OCC1Cc2c(cc(Cl)c3c(-c4ccccc4F)noc23)O1 (stereo not drawn) — lower, 110 to 111 °C
- CCC(C(=O)N(CC)CC)n1cc(C)c(-c2ccccc2)n1 (stereo not drawn) — lower, 80 to 82 °C
- COc1ccc(-c2c(Cl)c(CN3C(=O)CCC3=O)nc3sc4c(c23)CCN(C(C)=O)C4)cc1 — higher, 266 to 267 °C
- COc1cccc(CC(=O)NCc2ccccc2Cl)c1 — lower, 89 to 91 °C
- COc1cccc2c1CC(=O)c1cc(C(C)C(N)=O)ccc1S2 (stereo not drawn) — lower, 178 to 180 °C
- CC(C)(C)c1ccc(C2=NC[C@@H](O)[C@H](c3ccccc3)O2)cc1 (racemic) — lower, 50 °C
- O=C(Nc1ccccc1S(=O)(=O)N1CCCCC1)N[C@@H](Cc1ccc(Nc2nccc3cnccc23)cc1)C(=O)O — higher, 207 °C
- Cc1c([N+](=O)[O-])c([N+](=O)[O-])c(Cl)c2c1=NC(=O)C(=O)N=2 — higher, 346 to 348 °C
- NS(=O)(=O)c1cccc(-c2nc(-c3cnn4c(C(F)(F)F)cc(-c5ccc(C(F)(F)F)cc5)nc34)no2)c1 — higher, 285 °C
- O=C(N[C@H](Cc1ccc(CC(F)(F)C(F)(F)F)cc1)[C@@H](O)c1cccc(Cl)c1)c1cccc2c(Cl)cccc12 (racemic) — higher, 216 to 217 °C
- COCOc1cc(F)ccc1-c1cc(-c2cccc(C(=O)OC)c2)c(C#N)c(NC(=O)c2ccco2)n1 — lower, 160 to 162 °C
- CCOC(=O)CCCOc1ccc(CC(C)(C)N)cc1 — lower, 103 to 105 °C
- CCN(CC)C(=O)N1CCC(C(O)(c2ccc(Cl)cc2)c2ccc(Cl)cc2)CC1 — lower, 172 to 175 °C
- O=C(O)C1CCc2ccc([N+](=O)[O-])cc21 (stereo not drawn) — lower, 92 to 94 °C
- CC(C)(C)CC1(C)CC(C)(C)c2ccc(O)cc21 (stereo not drawn) — lower, 102 °C
- CCNC(=O)c1c(C2CC2)nc(CC)n1Cc1ccc2oc(-c3ccccc3NS(=O)(=O)C(F)(F)F)c(Br)c2c1 — lower, 124 to 130 °C
- CC(C)(C)OC(=O)Nc1ncc(-c2ccc(C#Cc3ccccc3)cc2)n1C(=O)OC(C)(C)C — lower, 131 to 132 °C
- O=C(Nc1cccc(-c2ccccc2)c1)Nc1cccc2[nH]ccc12 — higher, 213 to 215 °C
- Cc1cc([N+](=O)[O-])ccc1NCCCn1ccnc1 — lower, 163 °C
- O=c1cc(-c2ccoc2)c2ccc(S)cc2o1 — lower, 167 to 170 °C
- NC(=S)NC(c1ccccc1)c1ccc(Cl)cc1 (stereo not drawn) — lower, 173 to 175 °C
- O=C1C=CC(O)(c2cc3ccccc3n2S(=O)(=O)c2ccc(F)cc2)C=C1 — lower, 165 to 166 °C
- COc1c(C)cc(C(=O)c2ccc([N+](=O)[O-])cc2)cc1C — lower, 131 to 132 °C
- CC(C)(O)CCCc1onc(-c2ccccc2)c1-c1ccc(S(N)(=O)=O)cc1 — lower, 184 to 185 °C
- CC(=O)c1ccc2c(c1)[C@@H](N1CCCC1=O)[C@H](O)C(C)(C)O2 (relative stereo) — higher, 218 to 219 °C
- NS(=O)(=O)C1C=CC=CC1(CCNC(=O)C=Cc1cccs1)OCCOC(F)(F)F (stereo not drawn) — higher, 203 to 205 °C
- CN1CCC(OC2c3ccccc3CCn3cc(-c4ccc(N)cc4)nc32)CC1 (stereo not drawn) — higher, 197 °C
- COc1ccc(C(=O)c2ccnn2Cc2ccccc2)c(Cl)c1Cl — lower, 102 to 105 °C
- N#Cc1ccc(NC(=O)[C@H](CC(=O)O)NCc2ccccc2)cc1 — lower, 178 °C
- COc1cc2c(cc1C(F)(F)F)c(C(=O)Nc1cccnc1)cn2C — higher, > 250 °C
- C=CCN1C(=O)C(C)(CN2CCN(c3cccc4c3OCCO4)CC2)N=C1c1cccnc1 (stereo not drawn) — lower, 102 to 105 °C
- C[C@@H]1[C@@H](NC(=O)OCc2ccccc2)CN1S(=O)(=O)O — lower, 55 to 64 °C
- Nc1cc(C=O)nc(C2CCCO2)c1F (stereo not drawn) — lower, 122 to 123 °C
- CCOC(=O)C1=C(C)NC(C)=C(C(=O)OCC)C1c1ccccc1/C=C/c1ccc(OC)cc1 — lower, 179 to 181 °C
- Cc1ccc(-n2nc(C(C)(C)C)cc2NC(=O)Nc2ccc(-c3c(C(N)=O)[nH]c4ccccc34)cc2)cc1 — higher, > 260 °C
- CC(C)(C)c1ccc(C(=O)Nc2cn3nc(NC4CCCCC4)ccc3n2)cc1 — higher, 296 to 297 °C
- Nc1nc(Cc2ccccc2)ncc1C=S — lower, 136 to 139 °C
- COc1ccc(C=C2NC(=O)N(C)C2=O)cc1 — higher, 221 to 222 °C
- CCOC(=O)C=Cc1cn(C(=O)OC(C)(C)C)c2cnc(-n3cncn3)cc12 — lower, 178 to 181 °C
- CC(C)Oc1ccc(COc2ccc(CC(=O)O)cc2Cl)cc1 — lower, 115 to 116 °C
- COC(=O)c1sc(C(F)(F)F)cc1OC — lower, 78 to 79 °C
- O=C(O)N1C=CC=NC=C1 — higher, 238 to 240 °C
- O=C(Cn1cnc2ccccc21)Nc1ccc(-n2nc(C3CC3)cc2C2CC2)cc1 — higher, 230 to 235 °C
- COc1ccc(-n2nc(N3CCN(C(N)=O)CC3)c3ccccc32)cc1 — lower, 155 to 157 °C
- COC(=O)C1(CCCN2CCN(c3ccccc3)CC2)Sc2cc(OC)ccc2OCC1=O (stereo not drawn) — lower, 110 to 112 °C
- Fc1cccc2c1C1=NCCN1C(Cl)=N2 — higher, 281 to 285 °C
- Clc1nc(N2CCOCC2)nc(-n2cnc3ccccc32)n1 — higher, 201 to 203 °C
- CC1CCc2c(-c3ccc([N+](=O)[O-])cc3)ccc3c(=O)c(C(=O)O)cn1c23 (stereo not drawn) — higher, > 300 °C
- O=C(c1ccc(F)cc1)c1noc(CN2CCN(c3ccccc3)CC2)n1 — lower, 72 to 74 °C
- Cc1cc(Oc2c(Cl)cc(C(F)(F)F)cc2Cl)nn1C(=O)NC(C)(C)C — lower, 116 to 117 °C
- Cc1c2c(c(C)c3c1NC(C)(C)C3)OC(C)(CN1CCC(N(C)c3nc4ccccc4s3)CC1)C2 (stereo not drawn) — lower, 147 to 150 °C
- C=CS(=O)(=O)C(C)(C)S(=O)(=O)C=C — lower, 121 to 122 °C
- CCN(C/C=C/C#CC(C)(C)C)Cc1cccc(N(C)Cc2cccc(-c3ccsc3)c2)c1 — lower, 51 to 52 °C
- CCCCSc1c(CC(C)(C)C(=O)O)n(Cc2ccc(Cl)cc2)c2ccc(C(C)C)cc12 — lower, 129 to 130 °C
